Drawing on patent publication US20260055143A1, “HIGH AFFINITY VARIANTS OF SH2 DOMAINS” (Axoiya Inc., priority 2023, published 2026), this text covers change in affinity and change in binding for one substance.

This test deals with PPPT{pTyr}TEVDP. The test can be described thus: Competitive ELISA, Ptn11_C variants. It counts as binding. Here is the method: Competitive and non-competitive phage ELISAs were performed as previously described with minor modifications to the protocol. Peptide sequences used for these analyses can be found in Table 4.
Streptavidin (50 ng/well in TBS (50 mM Tris-HCl pH 8.0, 150 mM NaCl) was coated onto MAXISORP plates (Thermo Scientific). Phage binding was detected using HRP conjugated anti-M13 secondary antibody (1/2000 dilution, GE Healthcare) in TBS buffer containing 0.05% Tween-20 (TBT buffer). Phage binding was detected using the 3,3′,5,5′-tetramethylbenzidine (TMB) (Thermo Fisher Scientific) chromogenic substrate. Plates were read using a PowerWave XS microplate reader (BioTek).
Competitive phage-ELISAs were used to determine binding affinity of SH2 superbinders for their cognate target. ELISAs were performed as previously described, biotinylated and phosphorylated peptides were immobilized on plates at the concentration of 0.2 μM, and available binding sites on streptavidin were blocked by adding 25 μl/well of 50 μM D-biotin in TBS. […] Data were plotted using Prism 6 software (GraphPad Software Inc) and affinity of SH2 domains was inferred from determination of the half maximal inhibition concentration (IC50).
Peptides listed in Table 5 were used to assay for binding affinity of each corresponding SH2 domain.

For the substance “Ptn11_C^wt: wild-type PTN11_C SH2 domain, SEQ ID 57”, the change in affinity entry (with either the sSrc or sFes graft) is reported as “no improvement in affinity”. In addition, for the setting “αA-2-Arg mutation alone”, the change in binding result is listed as “not sufficient to enhance the binding”.
